Source: patent US20180071339A1, “COMBINATION OF PHARMACEUTICAL PREPARATIONS FOR TUMOR CHEMOTHERAPY” (HUBEI SOUNDNY BIOTECHNOLOGY CO., LTD., priority 2015, published 2018)
Structures can show the parent of a compound that is named as a salt.

Columns and labels:
[1] = test system: mouse bladder cancer cell line MB49; assay: mouse orthotopic bladder cancer model; assay type: in vivo, C57 mice; conditions: compared to mice firstly treated with cell vesicles then administered with Dox or HCPT; bladder infusion; bladders taken on day 12; FIGS. 7A and 7B
Procedure: Mouse bladder cancer cells are cultured with 10% of FBS 1640 basal medium until logarithm phase, and are resuspended with PBS into cell suspension with a cell concentration of 10^7/mL after being digested with trypsin. After C57 mice were anesthetized, 100 uL 0.1 mg/mL of polylysin solution are infused into mouse bladder using intravenous indwelling needle for pre-treatment for 20 min, and then 100 uL cell suspension are infused into the bladder after the polylysin solution is excreted, and cell suspension is excreted after holding for 1 h.
Preparing the cell vesicles with chemotherapy drugs wrapped therein: 100 uL chemotherapy drug (Dox or HCPT) are administered to 1 ml 1×10^7 mouse bladder cancer cells (1 mg/mL); 48 hours after administration of chemotherapy drugs, firstly centrifuging cell culture medium that contains apoptotic tumor cells at the rotational speed of 1300 rpm, 5000 rpm, respectively, each for 10 minutes and collecting a first supernatant; then centrifuging the first supernatant at the centrifugal force of 14000 g for 1 minute to remove cells and debris, and collecting a second supernatant; further centrifuging the second supernatant at the centrifugal force of 14000 g for 1 hour, then collecting precipitate to obtain cell vesicles with chemotherapy drugs wrapped therein. […]

[2] = test system: human breast cancer cells MCF-7; assay: excretion of doxorubicin drugs from MCF-7 cells, two-photon confocal microscope; assay type: cell-based; conditions: 1 μg/ml doxorubicin for 4 hours; test group first incubated with 5×10^5 cell vesicles for 12 hours; FIG. 2
Procedure: Human breast cancer cell line MCF-7 is cultured in RPMI Medium 1640, so that the cell amount reaches 2×10^7/ml; human breast cancer cell line MCF-7 is exposed to UV radiation for 60 minutes; 18 hours after UV radiation, human breast cancer cell line MCF-7 starts apoptosis, which is observed under microscope; collecting cell vesicles from the above apoptotic tumor cells by centrifugation or filtration procedure, as described in Example 1;
1×10^5 normally cultured human breast cancer cells MCF-7 are planted in a confocal dish, and then 5×10^5 cell vesicles prepared above and derived from human breast cancer cell line MCF-7 are added into the confocal dish and incubated with MCF-7 for 12 hours, and used as a test group (i.e., MCF-7 cells+MPs); 1×10^5 human breast cancer cells MCF-7 without adding the cells vesicles are used as a control group (i.e., MCF-7 cells).
The test group and the control group are washed once with PBS respectively, and then a medium containing 1 μg/ml of doxorubicin drugs is added, 4 hours later, two groups are stabilized with 4% of paraformaldehyde for 20 minutes, the excretion of doxorubicin drugs from the human breast cancer cell MCF-7 in test group and control group is observed under the Two-photon confocal microscope.

[3] = test system: tumor repopulating cells MCF-7/TRC; assay: uptake of doxorubicin drugs by MCF-7/TRC, two-photon confocal microscope; assay type: cell-based, human; conditions: 1 μg/ml doxorubicin hydrochloride for 4 hours, test group first incubated with cell vesicles for 12 hours, FIG. 3
Excerpt: (§1) Cell vesicles derived from human breast cancer cell line MCF-7 are obtained in accordance with the method in Example 2;
5000 MCF-7 human breast cancer cells are planted in the three-dimensional fibrous protein gel, and after 5 days culturing, a stem cell-like colony is formed, these cells are referred to as tumor repopulating cells, that is, MCF-7/TRC.
(§2) 1×10^5 human breast cancer cells MCF-7, tumor repopulating cells MCF-7/TRC, human breast cancer doxorubicin hydrochloride drug resistant cells ADR/MCF-7 were planted in the confocal dish, respectively. Cell vesicles that prepared above and derived from human breast cancer cell lines MCF-7 are added to the dish containing the above three kinds of cells respectively, with amount of 5×10^5/dish, and incubated for 12 hours, used as a test group;
(§3) Human breast cancer cells MCF-7, tumor repopulating cells MCF-7/TRC, and human breast cancer doxorubicin hydrochloride drug resistant strains ADR/MCF-7 without addition of cell vesicles are used as a control group. […]

[4] = test system: human breast cancer cells MCF-7; assay: uptake of doxorubicin drugs by MCF-7, two-photon confocal microscope; assay type: cell-based; conditions: 1 μg/ml doxorubicin hydrochloride for 4 hours, test group first incubated with cell vesicles for 12 hours, FIG. 3
Procedure: as §1, §2, §3

[5] = test system: human breast cancer doxorubicin hydrochloride drug resistant strains ADR/MCF-7; assay: uptake of doxorubicin drugs by ADR/MCF-7, two-photon confocal microscope; assay type: cell-based; conditions: 1 μg/ml doxorubicin hydrochloride for 4 hours, test group first incubated with cell vesicles for 12 hours, FIG. 3
Procedure: as §1, §2, §3

| Structure (SMILES) | treatment effects [1] | doxorubicin drug quantity in nucleus [2] | excretion of doxorubicin drugs from MCF-7 cells [2] | drug content in nucleus [3] | doxorubicin drug content in the nucleus [4] | drug content in nucleus [5] |
| --- | --- | --- | --- | --- | --- | --- |
| CC[C@@]1(O)C(=O)OCc2c1cc1n(c2=O)Cc2cc3cc(O)ccc3nc2-1 [HCPT, hydroxycamptothecin] | weaker treatment effects | – | – | – | – | – |
| COc1cccc2c1C(=O)c1c(O)c3c(c(O)c1C2=O)C[C@@](O)(C(=O)CO)C[C@@H]3O[C@H]1C[C@H](N)[C@H](O)[C@H](C)O1 [doxorubicin, doxorubicin hydrochloride] | weaker treatment effects | drug quantity in nucleus is not high | excrete a great number of drugs outside of the cell membrane | less than that in control group MCF-7 | not high | less than that in control group MCF-7 |
